Data published in ChEMBL document CHEMBL4680233, “A series of novel aryl-methanone derivatives as inhibitors of FMS-like tyrosine kinase 3 (FLT3) in FLT3-ITD-positive acute myeloid leukemia” (Eur J Med Chem, 2020).
Values belong to the compound of their own block, whether it stands above or below them. The source made the active and inactive calls. No cut-off for these calls is given here.

What was measured:
MV4-11 [1] = experiment: cells; settings: Homo sapiens, MV4-11, 72 h
Description: Cytotoxicity against human MV4-11 cells assessed as reduction in cell viability after 72 hrs by trypan blue dye exclusion method

[2] = molecular target: Proto-oncogene tyrosine-protein kinase receptor Ret (Homo sapiens, UniProt P07949); experiment: Inhibition of human RET incubated for 30 mins by Kinobead based assay
Sequence of Proto-oncogene tyrosine-protein kinase receptor Ret (P07949 whole entry): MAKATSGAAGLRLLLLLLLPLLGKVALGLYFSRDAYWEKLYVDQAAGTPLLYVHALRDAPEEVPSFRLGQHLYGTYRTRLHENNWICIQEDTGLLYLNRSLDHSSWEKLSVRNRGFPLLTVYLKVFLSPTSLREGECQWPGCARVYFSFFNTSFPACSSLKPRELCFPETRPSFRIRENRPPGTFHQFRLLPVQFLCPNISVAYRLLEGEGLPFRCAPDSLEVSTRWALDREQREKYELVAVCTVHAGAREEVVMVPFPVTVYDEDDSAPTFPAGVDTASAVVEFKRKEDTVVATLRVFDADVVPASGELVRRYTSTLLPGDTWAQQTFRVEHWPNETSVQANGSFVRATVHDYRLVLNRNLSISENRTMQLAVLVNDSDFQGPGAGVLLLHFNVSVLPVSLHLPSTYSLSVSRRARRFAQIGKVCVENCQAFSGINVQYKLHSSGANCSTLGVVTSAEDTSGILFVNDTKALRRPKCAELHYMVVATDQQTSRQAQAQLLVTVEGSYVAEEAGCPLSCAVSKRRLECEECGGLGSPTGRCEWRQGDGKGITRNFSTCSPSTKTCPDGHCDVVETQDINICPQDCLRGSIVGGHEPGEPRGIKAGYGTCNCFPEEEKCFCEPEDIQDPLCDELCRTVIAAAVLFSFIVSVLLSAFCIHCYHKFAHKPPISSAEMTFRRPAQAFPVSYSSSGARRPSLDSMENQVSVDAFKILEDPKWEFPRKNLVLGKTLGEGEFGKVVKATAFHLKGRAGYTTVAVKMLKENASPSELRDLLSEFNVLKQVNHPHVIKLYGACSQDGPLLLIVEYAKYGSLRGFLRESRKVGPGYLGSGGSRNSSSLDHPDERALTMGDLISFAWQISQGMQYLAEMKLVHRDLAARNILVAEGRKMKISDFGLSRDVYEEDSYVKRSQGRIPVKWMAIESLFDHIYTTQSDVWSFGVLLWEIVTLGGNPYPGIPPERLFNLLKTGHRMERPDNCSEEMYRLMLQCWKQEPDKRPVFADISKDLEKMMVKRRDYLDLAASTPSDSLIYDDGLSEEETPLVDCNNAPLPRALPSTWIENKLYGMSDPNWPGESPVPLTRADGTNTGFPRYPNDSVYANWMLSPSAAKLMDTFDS

[3] = molecular target: Receptor-type tyrosine-protein kinase FLT3 (Homo sapiens, UniProt P36888); experiment: Inhibition of human FLT3 incubated for 30 mins by Kinobead based assay
[4] = molecular target: Receptor-type tyrosine-protein kinase FLT3 (Homo sapiens, UniProt P36888, ITD)
[5] = molecular target: Receptor-type tyrosine-protein kinase FLT3 (Homo sapiens, UniProt P36888, D835Y)
[6] = molecular target: Receptor-type tyrosine-protein kinase FLT3 (Homo sapiens, UniProt P36888, F691L/ITD)
Description: Binding affinity to human partial length FLT3 ITD/F691L double mutant expressed in mammalian expression system by Kinomescan method

Ephrin type-A receptor 7 = Ephrin type-A receptor 7 (Homo sapiens, UniProt Q15375); experiment: Inhibition of human EPHA7 incubated for 30 mins by Kinobead based assay
Sequence of Ephrin type-A receptor 7 (Q15375 whole entry): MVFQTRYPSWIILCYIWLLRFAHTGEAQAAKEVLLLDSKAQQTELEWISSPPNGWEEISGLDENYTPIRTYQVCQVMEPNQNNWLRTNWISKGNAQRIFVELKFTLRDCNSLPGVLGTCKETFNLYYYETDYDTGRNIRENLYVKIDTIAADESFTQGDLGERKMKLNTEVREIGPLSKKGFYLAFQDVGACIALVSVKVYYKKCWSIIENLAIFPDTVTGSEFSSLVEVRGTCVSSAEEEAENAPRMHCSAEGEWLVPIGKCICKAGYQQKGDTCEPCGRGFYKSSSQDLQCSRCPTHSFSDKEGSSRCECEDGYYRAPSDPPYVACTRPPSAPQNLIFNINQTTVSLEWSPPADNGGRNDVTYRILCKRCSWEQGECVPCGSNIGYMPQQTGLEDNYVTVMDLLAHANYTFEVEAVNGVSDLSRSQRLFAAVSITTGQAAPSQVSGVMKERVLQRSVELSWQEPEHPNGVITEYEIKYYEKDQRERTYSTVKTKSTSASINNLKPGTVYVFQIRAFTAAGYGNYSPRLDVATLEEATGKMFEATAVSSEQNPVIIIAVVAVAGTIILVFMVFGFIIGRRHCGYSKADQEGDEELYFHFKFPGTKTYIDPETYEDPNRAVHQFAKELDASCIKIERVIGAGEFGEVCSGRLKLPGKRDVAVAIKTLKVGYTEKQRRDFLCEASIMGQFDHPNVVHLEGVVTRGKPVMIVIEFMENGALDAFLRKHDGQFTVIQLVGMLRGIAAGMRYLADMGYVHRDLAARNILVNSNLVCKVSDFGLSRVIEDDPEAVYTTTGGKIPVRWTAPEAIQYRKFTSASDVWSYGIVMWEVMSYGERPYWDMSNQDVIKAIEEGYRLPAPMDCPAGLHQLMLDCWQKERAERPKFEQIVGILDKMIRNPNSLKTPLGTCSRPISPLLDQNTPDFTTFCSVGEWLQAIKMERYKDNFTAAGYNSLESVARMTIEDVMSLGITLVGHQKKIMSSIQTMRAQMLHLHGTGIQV

[7] = molecular target: Cyclin-dependent kinase 16 (Homo sapiens, UniProt Q00536); experiment: Inhibition of human CDK16 incubated for 30 mins by Kinobead based assay
Sequence of Cyclin-dependent kinase 16 (Q00536 whole entry, the tested form may be a part): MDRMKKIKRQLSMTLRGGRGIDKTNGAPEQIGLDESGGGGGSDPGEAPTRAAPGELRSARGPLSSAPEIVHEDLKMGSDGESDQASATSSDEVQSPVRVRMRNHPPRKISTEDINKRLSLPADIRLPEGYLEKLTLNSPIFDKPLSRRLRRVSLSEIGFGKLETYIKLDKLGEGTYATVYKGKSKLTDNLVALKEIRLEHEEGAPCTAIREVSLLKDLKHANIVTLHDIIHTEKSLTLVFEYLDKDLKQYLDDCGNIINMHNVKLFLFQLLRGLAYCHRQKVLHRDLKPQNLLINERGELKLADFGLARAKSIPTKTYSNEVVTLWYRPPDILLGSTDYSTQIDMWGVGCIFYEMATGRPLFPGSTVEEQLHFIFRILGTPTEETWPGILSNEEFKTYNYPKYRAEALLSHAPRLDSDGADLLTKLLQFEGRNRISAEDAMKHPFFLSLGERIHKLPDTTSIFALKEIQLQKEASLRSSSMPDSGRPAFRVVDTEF

[8] = molecular target: Discoidin domain-containing receptor 2 (Homo sapiens, UniProt Q16832); experiment: Inhibition of human DDR2 incubated for 30 mins by Kinobead based assay
Sequence of Discoidin domain-containing receptor 2 (Q16832 whole entry, the tested form may be a part): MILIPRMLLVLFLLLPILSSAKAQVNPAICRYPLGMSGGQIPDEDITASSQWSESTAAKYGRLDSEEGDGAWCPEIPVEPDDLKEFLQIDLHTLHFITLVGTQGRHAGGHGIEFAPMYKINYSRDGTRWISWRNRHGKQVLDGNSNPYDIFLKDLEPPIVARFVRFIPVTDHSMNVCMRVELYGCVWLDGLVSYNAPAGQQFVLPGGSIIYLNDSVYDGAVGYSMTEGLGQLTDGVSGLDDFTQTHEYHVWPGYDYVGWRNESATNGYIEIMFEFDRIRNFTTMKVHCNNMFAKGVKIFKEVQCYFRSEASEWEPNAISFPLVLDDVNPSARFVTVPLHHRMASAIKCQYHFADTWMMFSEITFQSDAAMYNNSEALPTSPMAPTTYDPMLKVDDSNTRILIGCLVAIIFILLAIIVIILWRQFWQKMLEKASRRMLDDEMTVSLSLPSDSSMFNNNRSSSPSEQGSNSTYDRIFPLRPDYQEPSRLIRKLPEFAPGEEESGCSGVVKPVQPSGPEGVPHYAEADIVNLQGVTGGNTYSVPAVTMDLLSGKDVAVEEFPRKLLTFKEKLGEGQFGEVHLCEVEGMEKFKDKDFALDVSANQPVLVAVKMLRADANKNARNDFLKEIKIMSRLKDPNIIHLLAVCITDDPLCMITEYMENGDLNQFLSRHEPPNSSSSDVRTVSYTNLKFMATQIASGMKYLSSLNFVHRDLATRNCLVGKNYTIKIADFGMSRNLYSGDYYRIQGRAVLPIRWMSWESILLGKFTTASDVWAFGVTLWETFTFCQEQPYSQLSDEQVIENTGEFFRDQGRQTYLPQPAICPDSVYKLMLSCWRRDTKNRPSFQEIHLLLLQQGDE

[9] = molecular target: Mitogen-activated protein kinase kinase kinase 20 (Homo sapiens, UniProt Q9NYL2); experiment: Inhibition of human ZAK incubated for 30 mins by Kinobead based assay
Sequence of Mitogen-activated protein kinase kinase kinase 20 (Q9NYL2 whole entry): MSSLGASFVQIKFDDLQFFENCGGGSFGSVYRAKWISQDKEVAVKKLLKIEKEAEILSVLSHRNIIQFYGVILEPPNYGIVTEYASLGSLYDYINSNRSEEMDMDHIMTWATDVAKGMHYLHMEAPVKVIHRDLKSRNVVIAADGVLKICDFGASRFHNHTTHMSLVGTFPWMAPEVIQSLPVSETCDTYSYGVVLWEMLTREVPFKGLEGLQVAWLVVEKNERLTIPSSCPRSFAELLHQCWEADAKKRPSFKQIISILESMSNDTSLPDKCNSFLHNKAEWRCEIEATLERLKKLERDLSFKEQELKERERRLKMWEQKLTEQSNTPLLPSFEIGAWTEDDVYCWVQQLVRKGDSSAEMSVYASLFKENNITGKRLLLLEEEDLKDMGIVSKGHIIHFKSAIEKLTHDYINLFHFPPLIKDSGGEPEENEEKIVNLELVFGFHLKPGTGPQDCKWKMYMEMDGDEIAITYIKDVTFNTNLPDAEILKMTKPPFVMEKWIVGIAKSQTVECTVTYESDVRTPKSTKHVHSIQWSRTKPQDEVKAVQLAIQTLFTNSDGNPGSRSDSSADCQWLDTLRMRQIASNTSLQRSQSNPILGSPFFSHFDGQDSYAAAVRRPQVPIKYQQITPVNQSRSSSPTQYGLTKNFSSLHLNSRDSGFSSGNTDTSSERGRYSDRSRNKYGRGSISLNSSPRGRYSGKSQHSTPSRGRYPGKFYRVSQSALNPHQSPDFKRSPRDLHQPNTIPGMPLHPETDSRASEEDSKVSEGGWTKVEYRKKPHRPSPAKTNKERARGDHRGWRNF

[10] = molecular target: Mitogen-activated protein kinase kinase kinase kinase 4 (Homo sapiens, UniProt O95819); experiment: Inhibition of human MAP4K4 incubated for 30 mins by Kinobead based assay
[11] = molecular target: Receptor-type tyrosine-protein kinase FLT3 (Homo sapiens) (UniProt P36888); settings: MV4-11, dose 20-40 nM, time 3.0 hrs
KG-1a = experiment: cells; settings: Homo sapiens, 96 h
Description: Cytotoxicity against human KG-1a cells assessed as reduction in cell viability after 4 days by CellTiter-Blue assay

HL-60 = experiment: cells; settings: Homo sapiens, HL-60, 96 h
Description: Cytotoxicity against human HL-60 cells assessed as reduction in cell viability after 4 days by CellTiter-Blue assay

MOLM-13 = experiment: cells; settings: Homo sapiens, MOLM-13, 96 h
Description: Cytotoxicity against human MOLM-13 cells assessed as reduction in cell viability after 4 days by CellTiter-Blue assay

SKM-1 = experiment: cells; settings: Homo sapiens, SKM-1, 96 h
Description: Cytotoxicity against human SKM-1 cells assessed as reduction in cell viability after 4 days by CellTiter-Blue assay

THP-1 = experiment: cells; settings: Homo sapiens, THP-1, 96 h
Description: Cytotoxicity against human THP-1 cells assessed as reduction in cell viability after 4 days by CellTiter-Blue assay

IM-9 = experiment: cells; settings: Homo sapiens, IM-9, 96 h
Description: Cytotoxicity against human IM-9 cells assessed as reduction in cell viability after 4 days by CellTiter-Blue assay

RPMI-8226 = experiment: cells; settings: Homo sapiens, RPMI-8226, 96 h
Description: Cytotoxicity against human RPMI-8226 cells assessed as reduction in cell viability after 4 days by CellTiter-Blue assay

NB-4 = experiment: cells; settings: Homo sapiens, NB-4, 96 h
Description: Cytotoxicity against human NB-4 cells assessed as reduction in cell viability after 4 days by CellTiter-Blue assay

EOL1 = experiment: cells; settings: Homo sapiens, EOL1, 96 h
Description: Cytotoxicity against human EOL1 cells assessed as reduction in cell viability after 4 days by CellTiter-Blue assay

L-363 = experiment: cells; settings: Homo sapiens, L-363, 96 h
Description: Cytotoxicity against human L-363 cells assessed as reduction in cell viability after 4 days by CellTiter-Blue assay

OCI-AML-5 = experiment: cells; settings: Homo sapiens, OCI-AML-5, 96 h
Description: Cytotoxicity against human OCI-AML5 cells assessed as reduction in cell viability after 4 days by CellTiter-Blue assay

KMOE-2 = experiment: cells; settings: Homo sapiens, KMOE-2, 96 h
Description: Cytotoxicity against human KMOE-2 cells assessed as reduction in cell viability after 4 days by CellTiter-Blue assay

cells [12] = settings: Homo sapiens, Mono-Mac-1, 96 h
Description: Cytotoxicity against human MONO-MAC-1 cells assessed as reduction in cell viability after 4 days by CellTiter-Blue assay

physchem = settings: water
Description: Solubility of compound in water at 10 mg after 3 hrs by UV-spectra analysis

MONO-MAC-6 = experiment: cells; settings: Homo sapiens, MONO-MAC-6, 96 h
Description: Cytotoxicity against human MONO-MAC-6 cells assessed as reduction in cell viability after 4 days by CellTiter-Blue assay

MV4-11 [13] = experiment: cells; settings: Homo sapiens, MV4-11, 96 h
Description: Cytotoxicity against human MV4-11 cells assessed as reduction in cell viability after 4 days by CellTiter-Blue assay

TF-1 = experiment: cells; settings: Homo sapiens, TF-1, 96 h
Description: Cytotoxicity against human TF-1 cells assessed as reduction in cell viability after 4 days by CellTiter-Blue assay

ML-2 = experiment: cells; settings: Homo sapiens, ML-2, 96 h
Description: Cytotoxicity against human ML-2 cells assessed as reduction in cell viability after 4 days by CellTiter-Blue assay

cells [14] = settings: Homo sapiens, ME-1, 96 h
Description: Cytotoxicity against human ME-1 cells assessed as reduction in cell viability after 4 days by CellTiter-Blue assay

NOMO-1 = experiment: cells; settings: Homo sapiens, NOMO-1, 96 h
Description: Cytotoxicity against human NOMO-1 cells assessed as reduction in cell viability after 4 days by CellTiter-Blue assay

OCI-AML2 = experiment: cells; settings: Homo sapiens, OCI-AML2, 96 h
Description: Cytotoxicity against human OCI-AML2 cells assessed as reduction in cell viability after 4 days by CellTiter-Blue assay

cells [15] = settings: Homo sapiens, OCI-M1, 96 h
Description: Cytotoxicity against human OCI-M1 cells assessed as reduction in cell viability after 4 days by CellTiter-Blue assay

[16] = Toxicity in NMRI nu/nu mouse assessed as weight gain at 75 mg/kg/day, po for 3 days relative to control; assay type: organism-based; settings: in vivo, 72 h, time 3 day
[17] = Toxicity in NMRI nu/nu mouse assessed as lethality at 75 mg/kg/day, po for 3 days; assay type: organism-based; settings: in vivo, 72 h, time 3 day
cells [18] = settings: Homo sapiens, MOLP-2, 96 h
Description: Cytotoxicity against human MOLP-2 cells assessed as reduction in cell viability after 4 days by CellTiter-Blue assay

U-266 = experiment: cells; settings: Homo sapiens, U-266, 96 h
Description: Cytotoxicity against human U-266 cells assessed as reduction in cell viability after 4 days by CellTiter-Blue assay

OPM-2 = experiment: cells; settings: Homo sapiens, OPM-2, 96 h
Description: Cytotoxicity against human OPM-2 cells assessed as reduction in cell viability after 4 days by CellTiter-Blue assay

cells [19] = settings: Homo sapiens, PL-21, 96 h
Description: Cytotoxicity against human PL21 cells assessed as reduction in cell viability after 4 days by CellTiter-Blue assay

KG-1 = experiment: cells; settings: Homo sapiens, KG-1, 96 h
Description: Cytotoxicity against human KG-1 cells assessed as reduction in cell viability after 4 days by CellTiter-Blue assay

SMILES: CC(C)(C)c1cc(NC(=O)Nc2ccc3oc(C(=O)c4cc5cc(O)ccc5[nH]4)cc3c2)no1
EC50 [2]: 2490 nM
EC50 [3]: 1770 nM
IC50 [4]: 2.3 nM
IC50 [5]: 4.84 nM
Kd [6]: 115 nM
EC50 (Ephrin type-A receptor 7): 3260 nM
EC50 [7]: 1770 nM
EC50 [8]: 2490 nM
EC50 [9]: 3260 nM
EC50 [10]: 3860 nM
inhibition [11]: Active

SMILES: Cc1cc(NC(=O)Nc2ccc3[nH]c(C(=O)c4cc5cc(O)ccc5[nH]4)cc3c2)no1
IC50 (MV4-11 [1]): > 100 nM

SMILES: CC(C)(C)c1nnc(NC(=O)Nc2ccc3[nH]c(C(=O)c4cc5cc(O)ccc5[nH]4)cc3c2)s1
IC50 (MV4-11 [1]): 14.4 nM

SMILES: CC(C)(C)c1cc(NC(=O)Nc2ccc3[nH]c(C(=O)c4cc5cc(O)ccc5o4)cc3c2)no1
IC50 (MV4-11 [1]): 0.78 nM

SMILES: CC(C)(C)c1cc(NC(=O)Nc2ccc3oc(C(=O)c4cc5cc(OC(=O)N6CCC(N7CCCCC7)CC6)ccc5[nH]4)cc3c2)no1.Cl
IC50 (KG-1a): 0.613 nM
IC50 (HL-60): 2.35 nM
IC50 (MOLM-13): 0.002 nM
IC50 (SKM-1): 1.35 nM
IC50 (THP-1): 2.12 nM
IC50 (IM-9): 2.25 nM
IC50 (RPMI-8226): 2.37 nM
IC50 (NB-4): 3.6 nM
IC50 (EOL1): 0.0001 nM
IC50 (L-363): 1.61 nM
IC50 (OCI-AML-5): 0.159 nM
IC50 (KMOE-2): 5.33 nM
IC50 (cells [12]): 0.001 nM
solubility at 3 h (physchem): 230 µg/mL
IC50 (MONO-MAC-6): 0.011 nM
IC50 (MV4-11 [13]): 0.0009 nM
IC50 (TF-1): 5.31 nM
IC50 (ML-2): 1.49 nM
IC50 (cells [14]): 2.36 nM
IC50 (NOMO-1): 1.21 nM
IC50 (OCI-AML2): 1.39 nM
IC50 (cells [15]): 0.695 nM
Activity [16]: 3%
Activity [17]: Non-Toxic
IC50 (cells [18]): 2.27 nM
IC50 (U-266): 1.37 nM
IC50 (OPM-2): 1.33 nM
IC50 (cells [19]): 1.3 nM
IC50 (KG-1): 0.556 nM

SMILES: CC(C)(C)c1cc(NC(=O)Nc2cc3cc(C(=O)c4cc5cc(O)ccc5o4)[nH]c3cn2)no1
IC50 (MV4-11 [1]): 29.8 nM

The next lines start with the values.

IC50 (MV4-11 [1]): 1.7 nM
SMILES: CC(C)(C)c1cc(NC(=O)Nc2ccc3[nH]c(C(=O)c4cc5cc(O)ccc5[nH]4)cc3c2)no1

IC50 (MV4-11 [1]): 13.5 nM
SMILES: Cc1cccc2[nH]c(C(=O)c3cc4cc(NC(=O)Nc5cc(C(C)(C)C)on5)ccc4[nH]3)cc12

IC50 (MV4-11 [1]): 23.5 nM
SMILES: Cc1cccc2[nH]c(C(=O)c3cc4ccc(NC(=O)Nc5cc(C(C)(C)C)on5)cc4[nH]3)cc12

IC50 (MV4-11 [1]): > 100 nM
SMILES: CC(C)(C)c1cc(NC(=O)Nc2cnc3[nH]c(C(=O)c4cc5cc(O)ccc5[nH]4)cc3c2)no1

IC50 (MV4-11 [1]): > 100 nM
SMILES: Cc1cccc2[nH]c(C(=O)c3cc4c(NC(=O)Nc5cc(C(C)(C)C)on5)cccc4[nH]3)cc12

IC50 (MV4-11 [1]): > 100 nM
SMILES: Cc1cccc2[nH]c(C(=O)c3cc4cccc(NC(=O)Nc5cc(C(C)(C)C)on5)c4[nH]3)cc12
